We go through 21 compounds from US8653050B2, “Phenyl bicyclic methyl amine derivatives as sphingosine-1 phosphate receptors modulators” (Allergan, Inc., priority 2011, dated 2014).

The target in one assay is T1, human S1P1 receptor (Homo sapiens, UniProt P21453).
T1 construct: expressed in transfected cells; membranes used
As to the kind of experiment: GTP γ35S binding assay for S1P1 activity. It counts as biochemical. Particulars: membranes of cells stably expressing S1P1 receptor. The procedure:
Compounds were synthesized and tested for S1P1 activity using the GTP γ^35S binding assay. These compounds may be assessed for their ability to activate or block activation of the human S1P1 receptor in cells stably expressing the S1P1 receptor.
GTP γ^35S binding was measured in the medium containing (mM) HEPES 25, pH 7.4, MgCl2 10, NaCl 100, dithitothreitol 0.5, digitonin 0.003%, 0.2 nM GTP γ^35S, and 5 μg membrane protein in a volume of 150 μl. Test compounds were included in the concentration range from 0.08 to 5,000 nM unless indicated otherwise. Membranes were incubated with 100 μM 5′-adenylylimmidodiphosphate for 30 min, and subsequently with 10 μM GDP for 10 min on ice. Drug solutions and membrane were mixed, and then reactions were initiated by adding GTP γ^35S and continued for 30 min at 25° C. Reaction mixtures were filtered over Whatman GF/B filters under vacuum, and washed three times with 3 mL of ice-cold buffer (HEPES 25, pH7.4, MgCl2 10 and NaCl 100). Filters were dried and mixed with scintillant, and counted for ^35S activity using a β-counter. Agonist-induced GTP γ^35S binding was obtained by subtracting that in the absence of agonist. Binding data were analyzed using a non-linear regression method. In case of antagonist assay, the reaction mixture contained 10 nM […] in the presence of test antagonist at concentrations ranging from 0.08 to 5000 nM.
For orientation: Binding of GTPγS marks nucleotide exchange on a G protein.

Another assay relates to female C57BL6 mice. As to the kind of experiment: Lymphopenia assay in mice (in vivo blood lymphocyte depletion). Particulars: subcutaneous, 10 mg/Kg or 2 mg/Kg, 24 hours after dosing, FIG. 1 / FIG. 2. The procedure: Test drugs are prepared in a solution containing 3% (w/v) 2-hydroxy propyl R-cyclodextrin (HPBCD) and 1% DMSO to a final concentration of 1 mg/ml, and subcutaneously injected to female C57BL6 mice (CHARLES RIVERS) weighing 20-25 g at the dose of 10 mg/Kg. Blood samples are obtained by puncturing the submandibular skin with a Goldenrod animal lancet at 5, 24, 48, 72, and 96 hrs post drug application. Blood is collected into microvettes (SARSTEDT) containing EDTA tripotassium salt. Lymphocytes in blood samples are counted using a HEMAVET Multispecies Hematology System, HEMAVET HV950FS (Drew Scientific Inc.). (Hale, J. et al Bioorg. & Med. Chem. Lett. 14 (2004) 3351).
A lymphopenia assay in mice, as previously described, was employed to measure the in vivo blood lymphocyte depletion after dosing Compounds 9, 10, 11 and 14, (FIG. 1) and Compounds 15, 17, 18 and 20, (FIG. 2). These S1P agonists (or modulators) are useful for S1P-related diseases, and exemplified by the lymphopenia in vivo response. In general, test compounds were prepared in a solution containing 3% (w/v) 2-hydroxy propyl β-cyclodextrin (HPBCD) and 1% DMSO to a final concentration of 1 mg/ml, and subcutaneously injected to female C57BL6 mice (CHARLES RIVERS) weighing 20-25 g at the dose of 10 mg/Kg or 2 mg/Kg. Blood samples were obtained by puncturing the submandibular skin with a Goldenrod animal lancet at 24, 48, 72 and 96 hrs post drug application. Blood was collected into microvettes (SARSTEDT) containing EDTA tripotassium salt. Lymphocytes in blood samples were counted using a HEMAVET Multispecies Hematology System, HEMAVET HV950FS (Drew Scientific Inc.).

pEC50: −log10 of the molar value.

T1 sequence (P21453 whole entry): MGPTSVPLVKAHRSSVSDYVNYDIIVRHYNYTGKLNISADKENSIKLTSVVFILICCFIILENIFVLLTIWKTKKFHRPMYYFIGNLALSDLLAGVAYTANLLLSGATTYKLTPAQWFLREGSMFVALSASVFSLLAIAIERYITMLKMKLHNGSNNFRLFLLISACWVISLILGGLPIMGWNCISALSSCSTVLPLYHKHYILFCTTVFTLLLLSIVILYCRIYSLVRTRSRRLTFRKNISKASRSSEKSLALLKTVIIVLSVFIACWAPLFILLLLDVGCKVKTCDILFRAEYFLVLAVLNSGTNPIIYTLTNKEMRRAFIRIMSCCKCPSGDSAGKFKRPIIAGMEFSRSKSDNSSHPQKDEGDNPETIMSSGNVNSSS

Regarding `O=P(O)(O)CCCNCc1ccc(-c2ccc(CCCc3ccccc3)c(F)c2)c2cccnc12` [Compound 2, {3-[({5-[3-fluoro-4-(3-phenylpropyl)phenyl]quinolin-8-yl}methyl)amino]propyl}phosphonic acid], on human S1P1 receptor, the negative-log EC50 (pEC50) (as a rule, −log10 of the EC50, conventionally taken in molar units) was 8.23.
Consider `CCCCCCc1ccc(-c2ccc(CNCCCP(=O)(O)O)c3ccccc23)cc1` [Compound 3, [3-({[4-(4-hexylphenyl)-1-naphthyl]methyl}amino)propyl]phosphonic acid], for which the negative logarithm of the EC50 (pEC50) at human S1P1 receptor was 7.27.
For `CCCCCCc1ccc(-c2ccc(CNCCCP(=O)(O)O)c3ncccc23)cc1` [Compound 4, [3-({[5-(4-hexylphenyl)quinolin-8-yl]methyl}amino)propyl]phosphonic acid], the pEC50 on human S1P1 receptor was 9.22.
Turning to `CCCCCCc1ccc(-c2ccc(CNCCOP(=O)(O)O)c3ncccc23)cc1` [Compound 5, 2-({[5-(4-hexylphenyl)quinolin-8-yl]methyl}amino)ethyl dihydrogen phosphate], on human S1P1 receptor, the negative-log EC50 (pEC50) is 7.51. This pEC50 lies 1.71 log units lower than the previous one.
`O=P(O)(O)CCCNCc1ccc(-c2ccc(CCCc3ccccc3)cc2)c2cccnc12` [Compound 6, {3-[({5-[4-(3-phenylpropyl)phenyl]quinolin-8-yl}methyl)amino]propyl}phosphonic acid] showed a pEC50 on human S1P1 receptor of 8.08.
On the same count and under the same terms, as for `CCCCCCc1ccc(-c2ccc(CNCCC(=O)O)c3ncccc23)cc1` [Compound 7, 3-({[5-(4-hexylphenyl)quinolin-8-yl]methyl}amino)propanoic acid], the figure is 6.06; as for `Cc1ccccc1CCCc1ccc(-c2ccc(CNCCCP(=O)(O)O)c3ncccc23)cc1` [Compound 8, (3-{[(5-{4-[3-(2-methylphenyl)propyl]phenyl}quinolin-8-yl)methyl]amino}propyl)phosphonic acid], 8.42.
Turning to `CCCCCCCc1ccc(-c2ccc(CNCCCP(=O)(O)O)c3ncccc23)c(F)c1` [Compound 9, [3-({[5-(2-fluoro-4-heptylphenyl)quinolin-8-yl]methyl}amino)propyl]phosphonic acid], at human S1P1 receptor, the pEC50 is 7.87. Further, the “lymphocyte count after 24 hours” value with female C57BL6 mice was “lowered lymphocyte count”.
On to `CCCCCCCc1ccc(-c2ccc(CNCCCP(=O)(O)O)c3ncccc23)cc1F` [Compound 10, [3-({[5-(3-fluoro-4-heptylphenyl)quinolin-8-yl]methyl}amino)propyl]phosphonic acid], for which, on human S1P1 receptor, the pEC50 was 6.65. Further, the “lymphocyte count after 24 hours” value with female C57BL6 mice is given as “lowered lymphocyte count”.
The compound `CCCCC(CC)CCc1ccc(-c2ccc(CNCCCP(=O)(O)O)c3ncccc23)cc1` (centres unmarked) [Compound 11, {3-[({5-[4-(3-ethylheptyl)phenyl]quinolin-8-yl}methyl)amino]propyl}phosphonic acid] gave a pEC50 at human S1P1 receptor of 8.16. The “lymphocyte count after 24 hours” value in the assay with female C57BL6 mice is “lowered lymphocyte count”.
As for `CCCCCCCCc1ccc(-c2ccc(CNCCCP(=O)(O)O)c3ncccc23)cc1` [Compound 12, [3-({[5-(4-octylphenyl)quinolin-8-yl]methyl}amino)propyl]phosphonic acid], the pEC50 at human S1P1 receptor was 7.95.
The same measure, in the same setting: as for `CCCCCCc1ccc(-c2ccc(CNCCCP(=O)(O)O)c3ncccc23)cc1F` [Compound 13, [3-({[5-(3-fluoro-4-hexylphenyl)quinolin-8-yl]methyl}amino)propyl]phosphonic acid], the figure is 8.89.
As to `O=P(O)(O)CCCNCc1ccc(-c2ccc(CCC3CCCCC3)cc2)c2cccnc12` [Compound 14, {3-[({5-[4-(2-cyclohexylethyl)phenyl]quinolin-8-yl}methyl)amino]propyl}phosphonic acid], the pEC50 at human S1P1 receptor is 8.82. Moreover, in the assay on female C57BL6 mice, the “lymphocyte count after 24 hours” value was “lowered lymphocyte count”.
As for `CCCCCCc1ccc(-c2ccc(CNCCO)c3ncccc23)cc1` [Compound 15, 2-({[5-(4-hexylphenyl)quinolin-8-yl]methyl}amino)ethanol], at human S1P1 receptor, the pEC50 was 6.72. In addition, in the assay with female C57BL6 mice, the “lymphocyte count after 24 hours” value was “lowered lymphocyte count”.
`Cc1ccccc1CCCc1ccc(-c2ccc(CNCCCP(=O)(O)O)c3ncccc23)cc1F` [Compound 16, (3-{[(5-{3-fluoro-4-[3-(2-methylphenyl)propyl]phenyl}quinolin-8-yl)methyl]amino}propyl)phosphonic acid] showed a pEC50 on human S1P1 receptor of 9.00.
Compound `Cc1cccc(CCCc2ccc(-c3ccc(CNCCCP(=O)(O)O)c4ncccc34)cc2F)c1` [Compound 17, (3-{[(5-{3-fluoro-4-[3-(3-methylphenyl)propyl]phenyl}quinolin-8-yl)methyl]amino}propyl)phosphonic acid] showed a pEC50 at human S1P1 receptor of 9.52. The “lymphocyte count after 24 hours” value in the assay on female C57BL6 mice is on record as “lowered lymphocyte count”.
On to `Cc1ccc(CCCc2ccc(-c3ccc(CNCCCP(=O)(O)O)c4ncccc34)cc2F)cc1` [Compound 18, (3-{[(5-{3-fluoro-4-[3-(4-methylphenyl)propyl]phenyl}quinolin-8-yl)methyl]amino}propyl)phosphonic acid], for which the pEC50 at human S1P1 receptor is 9.00. Also, in the assay on female C57BL6 mice, the “lymphocyte count after 24 hours” value is reported as “lowered lymphocyte count”.
`CCCCC(CC)CCc1ccc(-c2ccc(CNCCCP(=O)(O)O)c3ncccc23)cc1F` (centres unmarked) [Compound 19, {3-[({5-[4-(3-ethylheptyl)-3-fluorophenyl]quinolin-8-yl}methyl)amino]propyl}phosphonic acid]: on human S1P1 receptor, the negative logarithm of the EC50 (pEC50) was 8.60.
`O=P(O)(O)CCCNCc1ccc(-c2ccc(CCC3CCCCC3)c(F)c2)c2cccnc12` [Compound 20, {3-[({5-[4-(2-cyclohexylethyl)-3-fluorophenyl]quinolin-8-yl}methyl)amino]propyl}phosphonic acid] had a pEC50 at human S1P1 receptor of 8.77. Further, the “lymphocyte count after 24 hours” value with female C57BL6 mice is given as “lowered lymphocyte count”.
As for `CCCCC(CC)CCc1ccc(-c2ccc(CNCCO)c3ncccc23)cc1F` (centres unmarked) [Compound 22, 2-[({5-[4-(3-ethylheptyl)-3-fluorophenyl]quinolin-8-yl}methyl)amino]ethanol], the negative logarithm of the EC50 (pEC50) on human S1P1 receptor was 6.86.
`CCCCC(CC)CCc1ccc(-c2ccc(CNCCOP(=O)(O)O)c3ncccc23)cc1F` (centres unmarked) [Compound 23, 2-[({5-[4-(3-ethylheptyl)-3-fluorophenyl]quinolin-8-yl}methyl)amino]ethyl dihydrogen phosphate]: the pEC50 at human S1P1 receptor is 8.58.
